# According to PubChem BioAssay (NCI):
# “And” between values parts separate entries of the source, which are not always exact repeats. Identical values can stand only once.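 Each compound was tested at five concentrations against cells in 96-well plates for 48 hours. GI50 = concentration required for 50% inhibition of growth. TGI denotes the concentration required for complete inhibition of growth.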
# Tests used:
# Assay in all cases: growth of human tumour cells (NCI), 48 h
# [1] = system: 786-0 renal
# [2] = system: A498 renal
# [3] = system: A549 NSCLC
# [4] = system: ACHN renal
# [5] = system: BT-549 breast
# [6] = system: CAKI-1 renal
# [7] = system: CCRF-CEM leukemia
# [8] = system: COLO 205 colon
# [9] = system: DLD-1 colon
# [10] = system: DMS 114 small cell lung
# [11] = system: DMS 273 small cell lung
# [12] = system: DU-145 prostate
# [13] = system: EKVX NSCLC
# [14] = system: HCC-2998 colon
# [15] = system: HCT-116 colon
# [16] = system: HCT-15 colon
# [17] = system: HL-60(TB) leukemia
# [18] = system: HOP-62 NSCLC
# [19] = system: HOP-92 NSCLC
# [20] = system: HS 578T breast
# [21] = system: HT29 colon
# [22] = system: IGROV1 ovarian
# [23] = system: K-562 leukemia
# [24] = system: KM12 colon
# [25] = system: KM20L2 colon
# [26] = system: LOX IMVI melanoma
# [27] = system: LXFL 529 NSCLC
# [28] = system: M14 melanoma
# [29] = system: MALME-3M melanoma
# [30] = system: MCF7 breast
# [31] = system: MDA-MB-231 breast
# [32] = system: MDA-MB-435
# [33] = system: MDA-N
# [34] = system: MOLT-4 leukemia
# [35] = system: NCI-H226 lung
# [36] = system: NCI-H23 lung
# [37] = system: NCI-H460 lung
# [38] = system: NCI-H522 lung
# [39] = system: NCI/ADR-RES ovarian
# [40] = system: OVCAR-3 ovarian
# [41] = system: OVCAR-4 ovarian
# [42] = system: OVCAR-5 ovarian
# [43] = system: OVCAR-8 ovarian
# [44] = system: PC-3 prostate
# [45] = system: RPMI-8226 leukemia
# [46] = system: RXF 393 renal
# [47] = system: RXF-631 renal
# [48] = system: SF-268 CNS
# [49] = system: SF-295 CNS
# [50] = system: SF-539 CNS
# [51] = system: SK-MEL-2 melanoma
# [52] = system: SK-MEL-28 melanoma
# [53] = system: SK-MEL-5 melanoma
# [54] = system: SK-OV-3 ovarian
# [55] = system: SN12C renal
# [56] = system: SNB-19 CNS
# [57] = system: SNB-75 CNS
# [58] = system: SNB-78 CNS
# [59] = system: SR leukemia
# [60] = system: SW-620 colon
# [61] = system: T-47D breast
# [62] = system: TK-10 renal
# [63] = system: U251 CNS
# [64] = system: UACC-257 melanoma
# [65] = system: UACC-62 melanoma
# [66] = system: UO-31 renal
# [67] = system: XF 498 CNS
smiles,measurement,setting,value
CC#CC#C/C=C1\C=CC2(OC=CC2OC(C)=O)O1 (stereo not drawn),GI50,[1],44.3 µM and 18.1 µM
same,TGI,[1],> 100 µM and 33.6 µM
same,TGI,[2],> 100 µM
same,TGI,[3],> 100 µM
same,TGI,[4],33.9 µM
same,TGI,[5],> 100 µM
same,TGI,[6],31.2 µM
same,TGI,[7],40.3 µM and 72.9 µM
same,TGI,[8],28.2 µM and 33.3 µM
same,TGI,[9],34.3 µM
same,TGI,[10],45.6 µM
same,TGI,[11],49.1 µM
same,TGI,[12],37.7 µM
same,TGI,[13],> 100 µM
same,TGI,[14],69.9 µM and 45.9 µM
same,GI50,[15],39.8 µM and 17.3 µM
same,TGI,[15],> 100 µM and 33.1 µM
same,GI50,[16],16.4 µM and 4.78 µM
same,TGI,[16],30 µM and 27.8 µM
same,TGI,[17],36.5 µM and > 86.7 µM
same,TGI,[18],> 100 µM
same,TGI,[19],51.6 µM and 44.1 µM
same,TGI,[20],> 100 µM
same,TGI,[21],34.8 µM and 55.9 µM
same,TGI,[22],> 100 µM
same,TGI,[23],> 100 µM and 54.8 µM
same,TGI,[24],63.7 µM and 54.8 µM
same,TGI,[25],10.2 µM
same,TGI,[26],> 100 µM and 31.7 µM
same,TGI,[27],32.2 µM
same,TGI,[28],> 100 µM and 37.9 µM
same,TGI,[29],> 100 µM and 69.8 µM
same,TGI,[30],30.8 µM
same,TGI,[31],41.9 µM
same,TGI,[32],> 100 µM
same,TGI,[33],30.1 µM
same,GI50,[34],6.9 µM and 17.8 µM
same,TGI,[34],64.6 µM and 53.2 µM
same,GI50,[35],> 100 µM and 11.1 µM
same,TGI,[35],> 100 µM and 23.4 µM
same,TGI,[36],42.9 µM and 16.5 µM
same,TGI,[37],65 µM and > 100 µM
same,GI50,[38],14.7 µM and 5.72 µM
same,TGI,[38],39.2 µM and 11.1 µM
same,TGI,[39],> 100 µM
same,TGI,[40],74.4 µM
same,GI50,[41],29.1 µM
same,TGI,[41],> 100 µM
same,GI50,[42],30.6 µM and 9.87 µM
same,TGI,[42],> 100 µM
same,TGI,[43],> 100 µM and 51.7 µM
same,TGI,[44],> 100 µM
same,TGI,[45],> 100 µM
same,TGI,[46],26.1 µM
same,TGI,[47],33.1 µM
same,TGI,[48],85.4 µM and 46.1 µM
same,TGI,[49],> 100 µM
same,TGI,[50],76.9 µM and 48.8 µM
same,GI50,[51],90.2 µM and 28.9 µM
same,TGI,[51],> 100 µM
same,GI50,[52],43.5 µM
same,TGI,[52],> 100 µM
same,TGI,[53],36.8 µM
same,TGI,[54],> 100 µM
same,TGI,[55],36.5 µM and 31 µM
same,TGI,[56],> 100 µM
same,TGI,[57],> 100 µM and 95.9 µM
same,TGI,[58],18.7 µM
same,TGI,[59],89.6 µM and > 94.5 µM
same,TGI,[60],65.9 µM and 39.7 µM
same,TGI,[61],73.9 µM
same,TGI,[62],> 100 µM and 59.7 µM
same,TGI,[63],43.1 µM and 33.2 µM
same,GI50,[64],30.5 µM and 15 µM
same,TGI,[64],> 100 µM and 33.6 µM
same,TGI,[65],52.3 µM and 33.2 µM
same,TGI,[66],30.8 µM and 36.2 µM
same,TGI,[67],37.7 µM
